Among the test systems are EKVX NSCLC; U251 CNS; HCT-116 colon; SNB-75 CNS; M14 melanoma; CCRF-CEM leukemia; NCI-H460 lung; SK-MEL-28 melanoma; CAKI-1 renal; HCC-2998 colon.
Holding throughout (test): inhibition of tumour cell growth, NCI panel, 48 h

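Following 48 hours of exposure in 96-well plates, responses at five concentrations were used to interpolate endpoints linearly. At the GI50, growth is halved. At the TGI there is no net growth.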 Some results are limits rather than exact numbers.

`CCOC(=O)c1nc2ccc(C(F)(F)F)cc2nc1Oc1cc(OC)cc(OC)c1`: the TGI in the test on EKVX NSCLC is > 100 µM; with U251 CNS, > 100 µM; in the test on HCT-116 colon, > 100 µM; in the test with SNB-75 CNS it was 75.6 µM; with M14 melanoma, > 100 µM; with CCRF-CEM leukemia it was > 100 µM. Further, the TGI in the test with NCI-H460 lung and in the test with SK-MEL-28 melanoma was > 100 µM throughout.

Turning to `NNC(=O)Cn1c2ccc(Br)cc2c2nc3ccccc3nc21`, the TGI in the test on EKVX NSCLC, in the test on U251 CNS, in the test on CAKI-1 renal, in the test on SNB-75 CNS, with M14 melanoma and with SK-MEL-28 melanoma was > 100 µM each time.

On to `CC1(C)CC(=O)c2c(nc3ccc4ccccc4c3c2-c2ccc(NC(=O)CCCCCCCCC(=O)Nc3ccc(-c4c5c(nc6ccc7ccccc7c46)CC(C)(C)CC5=O)cc3)cc2)C1`, for which the TGI in the test with EKVX NSCLC, in the test with U251 CNS, in the test with CAKI-1 renal, with HCT-116 colon, with M14 melanoma and in the test with CCRF-CEM leukemia was > 100 µM throughout. In addition, the TGI with NCI-H460 lung and in the test with SK-MEL-28 melanoma was > 100 µM throughout.

On to `C[C@@H]1CC[C@H]2C(C(O)CCCCC(O)C3=C(C(F)(F)F)O[C@@H]4O[C@@]5(C)CC[C@H]6[C@H](C)CC[C@@H]3[C@@]46OO5)=C(C(F)(F)F)O[C@@H]3O[C@@]4(C)CC[C@@H]1[C@]32OO4` (stereo partly specified), for which the GI50 in the test with EKVX NSCLC is 31.9 µM; in the test with U251 CNS, 19.8 µM; in the test with CAKI-1 renal, 5.72 µM; in the test with HCT-116 colon it was 7.17 µM; in the test with SNB-75 CNS, 42.4 µM; in the test with CCRF-CEM leukemia, 14.3 µM. In addition, the GI50 in the test on NCI-H460 lung is 15.3 µM; in the test on SK-MEL-28 melanoma, 86.7 µM. Besides, the TGI in the test on EKVX NSCLC, in the test with U251 CNS, with CAKI-1 renal, in the test with HCT-116 colon, in the test on SNB-75 CNS and with CCRF-CEM leukemia was > 100 µM throughout. The TGI in the test on NCI-H460 lung and in the test with SK-MEL-28 melanoma was > 100 µM in each case.

Take `CC1CC/C(=C\c2ccc(Cl)cc2)C2OC(N)=C(C#N)C(c3ccc(Cl)cc3)=C12` (stereo unspecified): the TGI is 22.7 µM in the test with EKVX NSCLC; 30.6 µM in the test with U251 CNS; 31.2 µM with CAKI-1 renal; 27.4 µM in the test on HCT-116 colon; 39 µM with M14 melanoma; 31.2 µM in the test on CCRF-CEM leukemia. In the test with SK-MEL-28 melanoma, this compound showed a TGI of 37.5 µM.

`O=C(Cn1c(C(=O)/C=C/c2cccs2)nc2ccccc21)c1ccc(Cl)cc1`: the TGI is 30.3 µM in the test on U251 CNS; 29.8 µM in the test with HCC-2998 colon; 39.5 µM with HCT-116 colon; > 100 µM with SNB-75 CNS; 40.7 µM with M14 melanoma; 25.8 µM in the test with NCI-H460 lung. Besides, in the test on SK-MEL-28 melanoma, the TGI was > 100 µM.

Take `CN1CCN(CCCBr)CC1`: the TGI in the test with EKVX NSCLC, in the test on U251 CNS, in the test with HCT-116 colon, in the test with SNB-75 CNS, in the test with M14 melanoma and in the test on CCRF-CEM leukemia was > 100 µM in each case. In addition, the TGI in the test with NCI-H460 lung and with SK-MEL-28 melanoma was > 100 µM each time.

Regarding `C[C@H]1C[C@H]2[C@@H]3C(C)(C)O[C@]4(O)C(=O)[C@]5(O)[C@@H](C)CC[C@H]1[C@]25C(=O)[C@]34C`, the TGI with U251 CNS, in the test on CAKI-1 renal, in the test with HCT-116 colon, in the test on M14 melanoma, in the test with CCRF-CEM leukemia and in the test on NCI-H460 lung was > 100 µM throughout.

With `CCCCCC(C)SC1(C(=O)OC)CC(OC(C)=O)C(NC(C)=O)C([C@H](OC(C)=O)[C@@H](COC(C)=O)OC(C)=O)O1` (stereo partly specified), the TGI in the test on U251 CNS, with CAKI-1 renal, in the test with HCC-2998 colon, with HCT-116 colon, with SNB-75 CNS and in the test on M14 melanoma was > 100 µM each time. Also, the TGI in the test on NCI-H460 lung and in the test with SK-MEL-28 melanoma was > 100 µM each time.

With `CC1(C)C2C=CC1(C)C1(CC2)OCCO1` (stereo unspecified), the TGI with U251 CNS, with HCC-2998 colon, with HCT-116 colon, in the test with SNB-75 CNS, in the test on M14 melanoma and in the test with CCRF-CEM leukemia was > 100 µM throughout. The TGI in the test with NCI-H460 lung and in the test on SK-MEL-28 melanoma was > 100 µM throughout.

As to `COc1ccc(C(=O)/C=C/c2c(Cl)c3c(c(OC)c2Cl)OCC(=O)N3)cc1`, the GI50 with HCT-116 colon is 1.43 µM; in the test with SNB-75 CNS it was 2.23 µM; with M14 melanoma, 2.03 µM; with CCRF-CEM leukemia it was 1.87 µM; in the test with SK-MEL-28 melanoma, 2.18 µM. The TGI is 2.87 µM in the test with HCT-116 colon; 9.71 µM in the test on SNB-75 CNS; 5.12 µM in the test on M14 melanoma; 8.44 µM with CCRF-CEM leukemia; 5.22 µM in the test on SK-MEL-28 melanoma.

In the case of `N#Cc1c(-c2ccc(Cl)cc2)c2c(n(C3OC(CO)C(O)C(O)C3O)c1=S)CCC2` (stereo unspecified), the TGI in the test on U251 CNS is 84.9 µM; in the test on CAKI-1 renal, > 100 µM; in the test with HCC-2998 colon, 42.1 µM; in the test on HCT-116 colon it was 98.4 µM; in the test on SNB-75 CNS it was 76.3 µM; in the test with M14 melanoma, 47.2 µM. Also, the TGI with CCRF-CEM leukemia was 56.7 µM; in the test on NCI-H460 lung, > 100 µM; with SK-MEL-28 melanoma it was 32.9 µM.

For the origin of these results see PubChem BioAssay (NCI).
